Test results published in US20090062122A1, “Cotton Growth Regulator” (FMC Corporation, priority 2006, published 2009).

Test system: cotton, variety D&PL 555
Assay: % open bolls of cotton plants, field trial
Assay type: in vivo
Details: 14 DAA
Description: The trial was performed on cotton, variety D&PL 555. The formulated test compounds were diluted to the appropriate concentrations with water to which a crop oil concentrate (1% to 2% v/v) or a non-ionic surfactant (0.25% v/v) was added. The application of the test composition as a cotton plant growth regulator was performed using pressurized, over-the-top spray equipment consisting of a research scale boom sprayer. Deposit of the test composition was primarily to the top of the cotton plants, minimizing spray deposition to lower branches, leaves and fruit. The finished spray volume was 10 gallons per acre, with sprayer nozzle design, orientation and nozzle pressures chosen to prevent spray drift. Applications were made at first sign of cotton boll opening and at 15%, 20% and 40% open bolls.
The experimental design used randomized plots with 1 to 4 treatment rates of test composition and from 1 to 10 replications depending on the test (sees tables below). The size of each experimental plot was about 15 m^2. Testing was performed in Texas, North Carolina, Mississippi and Georgia.
Percent desiccation, percent defoliation, percent terminal control and percent open bolls were evaluated at 7 and 14 days after application (DAA) of the test composition. Inspection of cotton plants for insect control of armyworm larvae was performed at 2 DAA and insect damage to bolls was performed at the time of harvest
Open bolls refers to the number of bolls which have opened per 100 cotton plants. Fifty cotton plants in two representative locations within a treatment plot were chosen to examine for open bolls. The percent of open bolls was calculated by dividing the number of open bolls by the total number of bolls on the plants multiplied by 100.
The results, shown as the mean of the indicated number of replications, were compared with results observed in the same trials with an untreated control.

CCOC(=O)C(Cl)Cc1cc(-n2nc(C)n(C(F)F)c2=O)c(F)cc1Cl (stereo not drawn) [carfentrazone-ethyl, ethyl 2-chloro-3-[2-chloro-5-(4-difluoromethyl-3-methyl-5-oxo-4,5-dihydro-[1,2,4]-triazol-1-yl)-4-fluorophenyl]propionate]
% Open Bolls (15% open boll application, 0.004 lb ai/a, 10 replicates): 59%
% Open Bolls (15% open boll application, 0.006 lb ai/a, 10 replicates): 61%
% Open Bolls (15% open boll application, 0.008 lb ai/a, 10 replicates): 64%
% Open Bolls (15% open boll application, 0.01 lb ai/a, 10 replicates): 63%
% Open Bolls (20% open boll application, 0.002 lb ai/a, 3 replicates): 62%
% Open Bolls (20% open boll application, 0.004 lb ai/a, 3 replicates): 62%
% Open Bolls (20% open boll application, 0.006 lb ai/a, 3 replicates): 67%
% Open Bolls (20% open boll application, 0.008 lb ai/a, 3 replicates): 62%
% Open Bolls (first open boll application, 0.002 lb ai/a, 3 replicates): 61%
% Open Bolls (first open boll application, 0.004 lb ai/a, 3 replicates): 58%
% Open Bolls (first open boll application, 0.006 lb ai/a, 3 replicates): 63%
% Open Bolls (first open boll application, 0.008 lb ai/a, 3 replicates): 68%
